Here are results for 2 compounds from patent publication US5883257A, “N-piperidinyl- and N-tetrahydropyridinyl-2-anthracenecarboxamides: dopamine receptor subtype specific ligands” (Neurogen Corporation, priority 1997, dated 1999).

Experiment [1] concerns the target dopamine D2 receptor (Chlorocebus aethiops, UniProt P52702). In words: D2 receptor binding assay (displacement of 3H-YM 09151-2). Details: species or system African Green monkey. Conditions: 0.5 nM 3H-YM 09151-2; COS cells with recombinant D2 receptors; 0.05M Tris HCl, 100 mM NaCl; nonspecific: 1 mM spiperone.
The target of experiment [2] is dopamine D3 receptor (Chlorocebus aethiops, UniProt P52703). The experiment can be described thus: D3 receptor binding assay (displacement of 3H-YM 09151-2). On the set-up: species or system African Green monkey. Particulars: 0.5 nM 3H-YM 09151-2; COS cells with recombinant D3 receptors; 0.05M Tris HCl, 100 mM NaCl; nonspecific: 1 mM spiperone.
Chain of dopamine D3 receptor (P52703 whole entry): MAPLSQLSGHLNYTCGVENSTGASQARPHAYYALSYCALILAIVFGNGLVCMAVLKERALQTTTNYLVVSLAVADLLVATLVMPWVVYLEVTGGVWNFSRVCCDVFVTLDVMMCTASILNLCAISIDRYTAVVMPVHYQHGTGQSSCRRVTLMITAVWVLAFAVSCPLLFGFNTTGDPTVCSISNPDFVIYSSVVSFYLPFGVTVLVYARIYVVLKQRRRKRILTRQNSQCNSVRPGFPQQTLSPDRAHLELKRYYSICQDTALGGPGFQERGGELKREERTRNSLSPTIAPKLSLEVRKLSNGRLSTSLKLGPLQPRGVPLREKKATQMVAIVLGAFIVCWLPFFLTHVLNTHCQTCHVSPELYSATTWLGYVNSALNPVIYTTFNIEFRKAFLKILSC

Structures can show the parent of a compound that is named as a salt.

Chain of dopamine D2 receptor (P52702 whole entry): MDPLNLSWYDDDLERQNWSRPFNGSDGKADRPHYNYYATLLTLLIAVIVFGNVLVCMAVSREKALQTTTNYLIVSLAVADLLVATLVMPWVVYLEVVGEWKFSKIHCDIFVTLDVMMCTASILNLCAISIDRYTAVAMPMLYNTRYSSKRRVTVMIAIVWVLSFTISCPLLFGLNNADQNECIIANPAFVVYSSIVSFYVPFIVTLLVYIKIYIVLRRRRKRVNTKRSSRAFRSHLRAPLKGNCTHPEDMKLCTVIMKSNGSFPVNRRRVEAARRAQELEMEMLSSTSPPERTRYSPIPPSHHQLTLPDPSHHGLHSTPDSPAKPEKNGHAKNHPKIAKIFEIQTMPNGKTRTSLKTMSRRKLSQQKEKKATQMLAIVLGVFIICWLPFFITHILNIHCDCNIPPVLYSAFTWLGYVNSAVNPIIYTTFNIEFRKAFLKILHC

On to `O=C(NCCCCN1CCN(c2cccc(Cl)c2Cl)CC1)c1ccc2cc3ccccc3cc2c1` [Compound 1, N-{4-[4-(2,3-Dichlorophenyl)-1-piperazinyl]butyl}-2-anthracenecarboxamide], for which the Ki in experiment [1] turned out to be 1090 nM; in experiment [2], 7 nM.
The corresponding values for `O=C(NCCCCN1CCN(c2cccc3ccccc23)CC1)c1ccc2cc3ccccc3cc2c1` [Compound 2, N-{4-[4-(1-Naphthyl)-1-piperazinyl]butyl}-2-anthracenecarboxamide hydrochloride] are 550 nM and 1.2 nM.
